Measurements: patent US8440666B2, “Pyridazinone compounds and P2X7 receptor inhibitors” (Nissan Chemical Industries, Ltd., priority 2007, dated 2013)

How the values were obtained:
[1] = tested on: IL-1β in supernatants of peripheral blood mononuclear cells; assay: IL-1β assay: BzATP- or ATP-induced IL-1β release from LPS-treated human peripheral blood mononuclear cells; assay type: cell-based; conditions: 2 h; IL-1β in supernatants of LPS-treated human PBMC; BzATP (1 mM) or ATP (5 mM), 120 min
Procedure: Human whole blood from healthy volunteers was diluted with equal volume of saline and peripheral blood mononuclear cells were collected by using a Limphoprep tube (Daiichi Pure Chemicals), washed with physiological saline and seeded onto a 96-well plate with a medium containing 1-10 ng/mL LPS (SIGMA). 30 minutes later, the cells were treated with varying concentrations of various compounds and incubated for 30 minutes. Then, the cells were treated with BzATP (final concentration 1 mM) or ATP (final concentration 5 mM) and incubated for 120 minutes. The cells were centrifugated to collect supernatents, and the concentration of IL-1β in supernatants were determined by IL-1β HTRF kit (CIS biointernational). The % inhibition rates were calculated and plotted against the logarithms of the concentrations to determine IC50.

[2] = target: T1, Human P2X7 (hP2X7) receptor (Homo sapiens, UniProt Q99572); assay: Dye assay: BzATP-induced Yo-Pro-1 uptake in HEK293 cells stably expressing hP2X7; assay type: cell-based; conditions: 90 min incubation
T1 construct: myc-His (from the pcDNA3.1/myc-HisA vector); expressed in transfected cells
T1 sequence (Q99572 1-595): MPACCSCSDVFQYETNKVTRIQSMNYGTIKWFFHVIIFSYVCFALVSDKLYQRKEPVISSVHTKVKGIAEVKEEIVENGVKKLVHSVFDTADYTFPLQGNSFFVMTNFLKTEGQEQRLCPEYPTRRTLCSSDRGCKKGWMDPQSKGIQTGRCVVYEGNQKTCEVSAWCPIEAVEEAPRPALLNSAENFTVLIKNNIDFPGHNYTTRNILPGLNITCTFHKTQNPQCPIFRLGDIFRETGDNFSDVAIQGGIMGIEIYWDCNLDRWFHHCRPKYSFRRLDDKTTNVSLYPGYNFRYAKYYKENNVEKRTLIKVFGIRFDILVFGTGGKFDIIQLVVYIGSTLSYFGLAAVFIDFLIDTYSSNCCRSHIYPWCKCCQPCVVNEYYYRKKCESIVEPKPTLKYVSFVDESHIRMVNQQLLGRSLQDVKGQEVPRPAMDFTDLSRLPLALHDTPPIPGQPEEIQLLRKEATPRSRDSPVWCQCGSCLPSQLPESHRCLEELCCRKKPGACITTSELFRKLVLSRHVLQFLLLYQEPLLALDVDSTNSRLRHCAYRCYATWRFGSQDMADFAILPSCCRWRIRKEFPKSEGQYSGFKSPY
Text: Human P2X7 (hP2×7) was cloned from a normal human brain total RNA library by reverse transcription (using SuperScript II (Invitrogen)) and PCR (using KOD-plus-(TOYOBO)). PCR primers were designed according to hP2X7 sequence registered in GENBANK with a putative amino acid sequence consisting of 595 amino acid residues. The PCR fragments were inserted into pcDNA3.1/myc-HisA vector (Invitrogen) and sequenced for confirmation.
HEK293 cells were transfected with hP2×7/pcDNA3.1/myc-HisA by lipofection, and 1 day later, the cells were treated with 1 mg/mL G418, and resistant cells were selected by appropriately dilution. The resistant cells were cloned by reseeding at a low density.
P2X7 receptor antagonists were screened by a dye uptake assay using HEK293 cells stably expressing hP2×7. Cells were plated on a type I collagen-coated black/clear bottom 96-well plate at 20000 cells/well and a day later, treated with varying concentrations of various test compounds for 30 minutes, then treated with a dye (Yo-Pro-1) (final concentration 2 μM) and BzATP (final concentration 0.1 mM) and incubated for 90 minutes. Then, the fluorescence (indicating the BzATP-induced Yo-Pro-1 uptake mediated by the P2X7 receptor) was measured with a microplate reader (excitation wavelength: 485 nm, emission wavelength: 535 nm). The % inhibition rates were calculated and plotted against the logarithms of the concentrations to determine IC50.

[3] = BzATP (0.1 mM)-induced Yo-Pro-1 uptake, compounds 30 min pre-treatment
[4] = BzATP 0.1 mM, Yo-Pro-1 2 μM, 30 min pre-treatment

SMILES | IC50 [1] | IC50 [2, 3] | IC50 [2, 4]
CCC(NC(=O)Cn1ncc(N[C@@H]2C[C@@H]3C[C@@H](C3(C)C)[C@]2(C)O)c(Br)c1=O)c1ccncc1 (some centres unmarked) [compound 358] | 38 nM | 10 nM | –
CC(NC(=O)Cn1ncc(NC2C3CCCC2CCC3)c(Cl)c1=O)c1ccncc1Cl (centres unmarked) [compound 378] | 1.5 nM | 1.5 nM | –
C[C@@H]1[C@H]2C[C@@H](C[C@H]1Nc1cnn(CC(=O)N[C@H](C)c3ccncc3)c(=O)c1Cl)C2(C)C [compound 230] | 3.1 nM | 2.8 nM | –
CC(NC(=O)Cn1ncc(N[C@@H]2C[C@@H]3C[C@H]([C@H]2C)C3(C)C)c(Cl)c1=O)c1ccncc1Cl (some centres unmarked) [compound 264] | 3.3 nM | 1.4 nM | –
O=C(Cn1ncc(NC2C3CCCC2CCC3)c(Br)c1=O)NCc1ccncc1 (centres unmarked) [compound 325] | 40 nM | 8.9 nM | –
CC(C)NC(=O)Cn1ncc(N[C@@H]2C[C@@H]3C[C@H]([C@H]2C)C3(C)C)c(Cl)c1=O [compound 134] | – | 20 nM | –
CCC(NC(=O)Cn1ncc(NC2C[C@@H]3CC([C@H]2C)C3(C)C)c(OC(F)F)c1=O)c1ccncc1 (some centres unmarked) [Synthetic Example 382] | – | 25 nM | –
CC(NC(=O)Cn1ncc(NC23CC4CC(CC2C4)C3)c(Cl)c1=O)c1ccncc1Cl (centres unmarked) [compound 354] | – | 2.6 nM | –
O=C(Cn1ncc(SC23CC4CC(CC(C4)C2)C3)c(Br)c1=O)NCc1ccncc1 [Synthetic Example 430, 2-[5-Bromo-6-oxo-4-(tricyclo[3.3.1.1^3,7]dec-1-ylsulfanyl)pyridazin-1-(6H)-yl]-N-(pyridin-4-ylmethyl)acetamide] | – | 58 nM | –
CC1(C)[C@H]2CC[C@@H](CNc3cnn(CC(=O)NCc4ccncc4)c(=O)c3Br)[C@@H]1C2 [compound 54] | – | 26 nM | –
C[C@@H]1[C@H]2C[C@@H](C[C@H]1Nc1cnn(CC(=O)NCc3ccc(NS(C)(=O)=O)cc3)c(=O)c1Cl)C2(C)C [compound 252] | – | 130 nM | –
C[C@@H]1[C@H]2C[C@@H](C[C@H]1Nc1cnn(-c3cccc(C(=O)NCc4ccncc4)c3)c(=O)c1Br)C2(C)C [Synthetic Example 162, 3-{5-Bromo-6-oxo-4-[(1R,2R,3R,5S)-2,6,6-trimethylbicyclo[3.1.1]hept-3-ylamino]pyridazin-1(6H)-yl}-N-(pyridin-4-ylmethyl)benzamide] | – | 51 nM | –
CN(C)c1cnccc1CNC(=O)Cn1ncc(NC23CC4CC(CC(C4)C2)C3)c(Cl)c1=O [compound 366] | – | 2.6 nM | –
CC(NC(=O)Cn1ncc(N[C@@H]2C[C@@H]3C[C@H]([C@H]2C)C3(C)C)c(Cl)c1=O)c1ccnnc1Cl (some centres unmarked) [compound 439] | – | – | 2 nM
CC(NC(=O)Cn1ncc(NC2CCC[C@@H]3CCCC[C@H]23)c(Cl)c1=O)c1ccncc1 (some centres unmarked) [compound 453] | – | – | 16 nM
CC(NC(=O)Cn1ncc(NC23CC4CC(CC(C4)C2)C3)c(Cl)c1=O)c1ccnnc1 (centres unmarked) [compound 367] | – | 3 nM | –
COc1nnccc1C(C)NC(=O)Cn1ncc(N[C@@H]2C[C@@H]3C[C@H]([C@H]2C)C3(C)C)c(Cl)c1=O (some centres unmarked) [compound 441] | – | – | 1.9 nM
C[C@@H]1[C@H]2C[C@@H](C[C@H]1Nc1cnn(-c3cccc(C(=O)NCC4(O)CCCCCC4)c3)c(=O)c1Br)C2(C)C [Synthetic Example 409, 3-[5-Bromo-6-oxo-4-{[(1R,2R,3R,5S)-2,6,6-trimethylbicyclo[3.1.1]hept-3-yl]amino}pyridazin-1(6H)-yl]-N-[(1-hydroxycycloheptyl)methyl]benzamide] | – | 71 nM | –
O=C(Cn1ncc(NC23CC4CC(CC2C4)C3)c(Cl)c1=O)NCc1ccnc(F)c1 [compound 343] | – | 25 nM | –
O=C(Cn1ncc(NC23CC4CC(CC(C4)C2)C3)c(Br)c1=O)NCc1ccncc1 [compound 51] | – | 16 nM | –
O=C(Cn1ncc(NC2CC3CC4CC(C3)C2C4)c(Br)c1=O)NCc1ccncc1 (centres unmarked) [compound 331] | – | 19 nM | –
C[C@@H]1[C@H]2C[C@@H](C[C@H]1Nc1cnn(CC(=O)NCc3ccncc3OCC#N)c(=O)c1Cl)C2(C)C [Synthetic Example 415] | – | 39 nM | –

Results, then the compound that gave them:

IC50 [1] | IC50 [2, 3] | IC50 [2, 4] | SMILES
39 nM | 3.9 nM | – | CC1C(Nc2cnn(CC(=O)NCc3ccnnc3)c(=O)c2Br)CC2CC1C2(C)C (centres unmarked) [compound 214]
17 nM | – | 2.1 nM | Cc1cnncc1CNC(=O)Cn1ncc(N[C@@H]2C[C@@H]3C[C@H]([C@H]2C)C3(C)C)c(Cl)c1=O [compound 432]
19 nM | 6.3 nM | – | CC(NC(=O)Cn1ncc(N[C@@H]2C[C@@H]3C[C@H]([C@H]2C)C3(C)C)c(Br)c1=O)c1ccncc1 (some centres unmarked) [compound 39]
4.3 nM | 3.7 nM | – | C[C@@H]1[C@H]2C[C@@H](C[C@H]1Nc1cnn(CC(=O)NCc3ccncc3N(C)C)c(=O)c1Cl)C2(C)C [compound 277]
61 nM | 21 nM | – | C[C@@H]1[C@H]2C[C@@H](C[C@H]1Nc1cnn(CCNCc3ccncc3)c(=O)c1Br)C2(C)C [Synthetic Example 47, 4-Bromo-2-[2-(pyridin-4-ylmethylamino)ethyl]-5-[(1R,2R,3R,5S)-2,6,6-trimethylbicyclo[3.1.1]hept-3-ylamino]pyridazin-3(2H)-one]
– | 22 nM | – | C[C@@H]1[C@H]2C[C@@H](C[C@H]1Nc1cnn(CC(=O)NCc3ccnc4ccccc34)c(=O)c1Br)C2(C)C [compound 167]
– | 30 nM | – | Cc1noc(C)c1CNC(=O)Cn1ncc(N[C@@H]2C[C@@H]3C[C@H]([C@H]2C)C3(C)C)c(Br)c1=O [compound 212]
– | 54 nM | – | C[C@@H]1[C@H]2C[C@@H](C[C@H]1Nc1cnn(CC(=O)NC(C#N)c3ccccc3)c(=O)c1Br)C2(C)C (some centres unmarked) [compound 190]
– | 38 nM | – | C[C@@H]1[C@H]2C[C@@H](C[C@H]1Nc1cnn(CC(=O)Nc3cccnc3)c(=O)c1Cl)C2(C)C [compound 227]
– | 86 nM | – | C[C@@H]1[C@H]2C[C@@H](C[C@H]1Nc1cnn(CC(=O)NCCc3ccccc3)c(=O)c1Br)C2(C)C [compound 6]
– | 40 nM | – | C[C@@H]1[C@H]2C[C@@H](C[C@H]1Nc1cnn(CC(=O)NCc3ccncc3)c(=O)c1C(=O)O)C2(C)C [Synthetic Example 406, 3-Oxo-2-{2-oxo-2-[(pyridin-4-ylmethyl)amino]ethyl}-5-{[(1R,2R,3R,5S)-2,6,6-trimethylbicyclo[3.1.1]hept-3-yl]amino}-2,3-dihydropyridazine-4-carboxylic Acid]
– | 62 nM | – | C[C@@H]1[C@H]2C[C@@H](C[C@H]1Nc1cnn(Cc3ccccn3)c(=O)c1Br)C2(C)C [compound 87]
– | 34 nM | – | CC(NC(=O)Cn1ncc(N[C@@H]2C[C@@H]3C[C@H]([C@H]2C)C3(C)C)c(Br)c1=O)c1ccccc1 (some centres unmarked) [compound 23]
– | – | 14 nM | C[C@@H]1[C@H]2C[C@@H](C[C@H]1Nc1cnn(CC(=O)NCc3ccnc(F)c3Cl)c(=O)c1Cl)C2(C)C [compound 448]
– | 240 nM | – | C[C@@H]1[C@H]2C[C@@H](C[C@H]1Nc1cnn(CC(=O)NCc3ccncc3)c(=O)c1-c1ccncc1)C2(C)C [Synthetic Example 379, 2-[6-Oxo-5-(pyridin-4-yl)-4-{[(1R,2R,3R,5S)-2,6,6-trimethylbicyclo[3.1.1]hept-3-yl]amino}pyridazin-1(6H)-yl]-N-(pyridin-4-ylmethyl)acetamide]
– | 5.4 nM | – | COc1cnccc1CNC(=O)Cn1ncc(N[C@@H]2C[C@@H]3C[C@H]([C@H]2C)C3(C)C)c(Cl)c1=O [compound 294]
– | 51 nM | – | CC(C)NC(=O)Cn1ncc(N[C@@H]2C[C@@H]3C[C@H]([C@H]2C)C3(C)C)c(Br)c1=O [compound 2]
– | 3.1 nM | – | Cc1cnccc1CNC(=O)Cn1ncc(N[C@@H]2C[C@@H]3C[C@H]([C@H]2C)C3(C)C)c(Br)c1=O [compound 170]
